The subject of assay [1] is PAXF1657 control empty vector cell line. As to the kind of experiment: 7-day proliferation assay, PAXF1657 control empty vector cell line (Example 9). Conditions: 168 h; Cell Line: PAXF1657 empty vector (EV) cell line; 7-day; read-out: C: 7-day proliferation assay: IC50 GeoMean. The assay is classed as cell-based. The method, boiled down:
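Cells plated at 500 per well and attached overnight. Next, 10-point inhibitor series added (30 μM-0.0002 μM, 0.3% DMSO) and a day-0 viability plate read. Then, after 3 days, medium with fresh compound. Finally, viability after 4 more days via CellTiter-Glo.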

The target of a further assay is T1, GRK2 (Homo sapiens, UniProt P25098).
T1 construct: purchased SignalChem A14-10G
T1 sequence (P25098 1-689): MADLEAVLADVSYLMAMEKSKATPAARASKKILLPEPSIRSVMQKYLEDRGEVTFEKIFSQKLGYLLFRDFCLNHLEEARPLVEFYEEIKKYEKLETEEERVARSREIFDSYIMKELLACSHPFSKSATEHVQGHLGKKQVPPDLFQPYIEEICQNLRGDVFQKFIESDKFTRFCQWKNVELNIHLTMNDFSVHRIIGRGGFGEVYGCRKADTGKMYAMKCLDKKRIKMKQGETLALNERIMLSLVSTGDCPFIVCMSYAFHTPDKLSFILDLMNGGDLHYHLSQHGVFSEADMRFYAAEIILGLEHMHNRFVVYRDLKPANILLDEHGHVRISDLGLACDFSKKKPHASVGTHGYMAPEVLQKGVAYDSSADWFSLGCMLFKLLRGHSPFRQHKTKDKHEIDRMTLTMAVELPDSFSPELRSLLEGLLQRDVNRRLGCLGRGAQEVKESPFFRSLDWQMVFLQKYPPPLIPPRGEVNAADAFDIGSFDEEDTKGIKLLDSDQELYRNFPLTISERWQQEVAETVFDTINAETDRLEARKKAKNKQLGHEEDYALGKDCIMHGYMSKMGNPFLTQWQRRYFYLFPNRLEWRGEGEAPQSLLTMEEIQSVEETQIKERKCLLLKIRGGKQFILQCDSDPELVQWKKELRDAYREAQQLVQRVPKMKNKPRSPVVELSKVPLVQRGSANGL
As to the kind of experiment: ADPGlo GRK2 Inhibition Assay (Example 8). Type of assay: biochemical. As to conditions: read-out: A: Enzymatic GRK2: IC50 (nM) (Example 8). In short, it runs like this: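 GRK2 (15 nM 2× enzyme solution) was preincubated 15 min with compound, then reacted 180 min at room temperature with 2× mix of 20 μM ATP plus GRKtide in HEPES pH 7.5, MgCl2, Tween-20, DTT. ADP was detected by ADP-Glo luminescence. Percent inhibition was normalised to enzyme and no-enzyme controls, with dose-response curves from threefold dilutions starting at 100 μM.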

The mark [2] stands for this setting: Enzyme Assay A, ADPGlo (Example 8).

Read-outs that look alike come from different tables or passages of the source.

For the compound `Cn1c(CNc2cccc(C(=O)NC(C)(C)c3ccncc3)c2)nnc1-c1ccncn1`, the IC50 in assay [1] is more than 10000 nM; at GRK2 (setting [2]), 49 nM.

Consider `CCn1ncc(Cl)c1CNC(=O)c1cccc(NCc2nnc(-c3ccncn3)n2C)c1`, for which the IC50 in assay [1] was more than 10000 nM; at GRK2 (setting [2]) it was 16 nM.

`Cn1c(CNc2cccc(C(=O)NCc3ncccc3F)c2)nnc1-c1ccncn1`: the IC50 turned out to be 164 nM in assay [1] and 69 nM at GRK2 (setting [2]).

Consider `COCC(NC(=O)c1cccc(NCc2nnc(-c3ccncn3)n2C)c1)c1ccccc1` (stereo not drawn), for which the values for the IC50 (in assay [1]; at GRK2 (setting [2])) were more than 10000 nM and 36 nM, respectively.

On to `Cn1c(CNc2cccc(C(=O)NCc3cnccc3C(F)(F)F)c2)nnc1-c1ccncn1`, for which the IC50 in assay [1] is more than 10000 nM; on GRK2 (setting [2]), 39 nM.

As to `COc1cccc(F)c1CNC(=O)c1cccc(NCc2nnc(-c3ccncn3)n2C)c1`, the IC50 in assay [1] stood at 149 nM; on GRK2 (setting [2]), 16 nM.

As to `Cn1c(CNc2cccc(C(=O)NCc3c(Cl)cncc3Cl)c2)nnc1-c1ccncn1`, the IC50 in assay [1] stood at 4320 nM; at GRK2 (setting [2]), 31 nM.

Take `Cn1c(CNc2cccc(C(=O)NCc3ccncc3C(F)(F)F)c2)nnc1-c1ccncn1`: the figures for the IC50 (in assay [1]; on GRK2 (setting [2])) were more than 10000 nM and 33 nM, respectively.

Regarding `Cc1cnc(CNC(=O)c2cccc(NCc3nnc(-c4ccncn4)n3C)c2)c(C)c1`, the IC50 in assay [1] is more than 10000 nM; on GRK2 (setting [2]) it was 10 nM.

As to `COc1cccc2c1OCC[C@H]2NC(=O)c1cccc(NCc2nnc(-c3ccncn3)n2C)c1`, the IC50 in assay [1] was determined as 7740 nM; at GRK2 (setting [2]) it was 26.1 nM.

As to `COc1cccc2c1OCC[C@@H]2NC(=O)c1cccc(NCc2nnc(-c3ccncn3)n2C)c1`, the IC50 in assay [1] turned out to be 470 nM; at GRK2 (setting [2]) it was 87.5 nM.

With `COc1ccc2c(c1)OCC[C@H]2NC(=O)c1cccc(NCc2nnc(-c3ccncn3)n2C)c1`, the IC50 stood at 485 nM in assay [1] and 60.9 nM at GRK2 (setting [2]).

Regarding `COc1ccc2c(c1)[C@H](NC(=O)c1cccc(NCc3nnc(-c4ccncn4)n3C)c1)CCO2`, the IC50 in assay [1] was more than 30000 nM; on GRK2 (setting [2]), 15.2 nM.

For the compound `Cn1c(CNc2cccc(C(=O)N[C@@H]3CCOc4ccc(C(F)(F)F)cc43)c2)nnc1-c1ccncn1`, the IC50 was determined as 594 nM in assay [1] and 8.09 nM on GRK2 (setting [2]).

For the compound `Cn1c(CNc2cccc(C(=O)N[C@H]3CCOc4ccc(C(F)(F)F)cc43)c2)nnc1-c1ccncn1`, the IC50 in assay [1] is 28500 nM; on GRK2 (setting [2]) it was 834 nM.

`CNS(=O)(=O)c1cccc(F)c1CNC(=O)c1cccc(NCc2nnc(-c3ccncc3)[nH]2)c1`: the IC50 in assay [1] stood at 3620 nM; at GRK2 (setting [2]), 5.38 nM.

As for `O=C(N[C@@H]1COc2cc(F)ccc21)c1cccc(NCc2nnc(-c3ccncc3)[nH]2)c1`, the values for the IC50 (in assay [1]; at GRK2 (setting [2])) were 607 nM and 7.92 nM, respectively.

In the case of `O=C(N[C@H]1COc2cc(F)ccc21)c1cccc(NCc2nnc(-c3ccncc3)[nH]2)c1`, the IC50 in assay [1] was 4070 nM; on GRK2 (setting [2]), 27.9 nM.

Turning to `Cn1c(CNc2cccc(C(=O)N[C@@H](CCO)c3ccccc3)c2)nnc1-c1ccncn1`, the IC50 in assay [1] came to 13100 nM; at GRK2 (setting [2]), 65.9 nM.

For the compound `Cn1c(CNc2cccc(C(=O)N[C@H](CCO)c3ccccc3)c2)nnc1-c1ccncn1`, the IC50 worked out at 4190 nM in assay [1] and 9.54 nM on GRK2 (setting [2]).

For `Cn1c(CNc2cccc(C(=O)N[C@@H]3COc4cc(F)ccc43)c2)nnc1-c1ccncn1`, the values for the IC50 (in assay [1]; at GRK2 (setting [2])) were 117 nM and 25.8 nM, respectively.

On to `Cn1c(CNc2cccc(C(=O)N[C@H]3COc4cc(F)ccc43)c2)nnc1-c1ccncn1`, for which the IC50 in assay [1] is more than 30000 nM; on GRK2 (setting [2]) it was 9.03 nM.

With `CCCn1c(CNc2cccc(C(=O)NCc3c(F)cccc3S(=O)(=O)NC)c2)nnc1-c1ccncn1`, the IC50 in assay [1] was more than 3200 nM; at GRK2 (setting [2]), 22.2 nM.

For `CCCn1c(CNc2cccc(C(=O)N[C@@H]3COc4cc(F)ccc43)c2)nnc1-c1ccncn1`, the values for the IC50 (in assay [1]; on GRK2 (setting [2])) were more than 30000 nM and 3.35 nM, respectively.

Regarding `CCCn1c(CNc2cccc(C(=O)N[C@H]3COc4cc(F)ccc43)c2)nnc1-c1ccncn1`, the IC50 in assay [1] is more than 30000 nM; on GRK2 (setting [2]) it was 10.5 nM.

With `CNS(=O)(=O)c1cccc(F)c1CNC(=O)c1cccc(NCc2nnc3n2CCOc2cnccc2-3)c1`, the IC50 in assay [1] stood at 2840 nM; at GRK2 (setting [2]), 85.3 nM.

Take `O=C(N[C@@H]1COCc2ccccc21)c1cccc(NCc2nnc(-c3ccncn3)n2CCO)c1`: the IC50 in assay [1] is 592 nM; at GRK2 (setting [2]) it was 1.47 nM.

On to `O=C(N[C@H]1COCc2ccccc21)c1cccc(NCc2nnc(-c3ccncn3)n2CCO)c1`, for which the values for the IC50 (in assay [1]; on GRK2 (setting [2])) were more than 2110 nM and 38.1 nM, respectively.

As to `O=C(N[C@@H]1COc2cc(F)ccc21)c1cccc(NCc2nnc(-c3ccncn3)n2CCO)c1`, the IC50 in assay [1] is 25.4 nM; on GRK2 (setting [2]), 22.4 nM.

Regarding `O=C(N[C@H]1COc2cc(F)ccc21)c1cccc(NCc2nnc(-c3ccncn3)n2CCO)c1`, the IC50 in assay [1] turned out to be 256 nM; on GRK2 (setting [2]), 3.84 nM.

As to `O=C(N[C@@H]1COCc2ccccc21)c1cccc(NCc2nnc(-c3ccncc3)n2CCO)c1`, the IC50 was more than 30000 nM in assay [1] and 9.28 nM at GRK2 (setting [2]).

As to `O=C(N[C@H]1COCc2ccccc21)c1cccc(NCc2nnc(-c3ccncc3)n2CCO)c1`, the IC50 was 41.6 nM in assay [1] and 10.9 nM on GRK2 (setting [2]).

Consider `O=C(N[C@@H]1COCc2c(Cl)cccc21)c1cccc(NCc2nnc(-c3ccncc3)n2CCO)c1`, for which the IC50 in assay [1] was 24.2 nM; at GRK2 (setting [2]), 9.91 nM.

For the compound `O=C(N[C@H]1COCc2c(Cl)cccc21)c1cccc(NCc2nnc(-c3ccncc3)n2CCO)c1`, the IC50 in assay [1] was more than 30000 nM; at GRK2 (setting [2]), 7.18 nM.

Take `O=C(N[C@@H]1COc2cc(F)ccc21)c1cccc(NCc2nnc(-c3ccncc3)n2CCO)c1`: the IC50 in assay [1] amounted to 3130 nM; on GRK2 (setting [2]) it was 4.8 nM.

Regarding `O=C(N[C@H]1COc2cc(F)ccc21)c1cccc(NCc2nnc(-c3ccncc3)n2CCO)c1`, the IC50 in assay [1] is more than 30000 nM; at GRK2 (setting [2]) it was 23.2 nM.

For the compound `Cn1c(CNc2cccc(C(=O)N[C@@H]3COCc4ccccc43)c2)nnc1-c1ccncc1F`, the values for the IC50 (in assay [1]; on GRK2 (setting [2])) were more than 30000 nM and 227 nM, respectively.

With `Cn1c(CNc2cccc(C(=O)N[C@H]3COCc4ccccc43)c2)nnc1-c1ccncc1F`, the IC50 in assay [1] was determined as 61.5 nM; at GRK2 (setting [2]), 32.5 nM.

For `Cn1c(CNc2cccc(C(=O)N[C@@H]3COCc4c(Cl)cccc43)c2)nnc1-c1ccncc1F`, the IC50 in assay [1] is more than 30000 nM; on GRK2 (setting [2]), 60.4 nM.

Take `Cn1c(CNc2cccc(C(=O)N[C@H]3COCc4c(Cl)cccc43)c2)nnc1-c1ccncc1F`: the IC50 in assay [1] was 245 nM; at GRK2 (setting [2]), 21.9 nM.

Consider `CNS(=O)(=O)c1cccc(F)c1CNC(=O)c1cccc(NCc2nnc(-c3ccncc3F)n2C)c1`, for which the IC50 in assay [1] came to 2700 nM; at GRK2 (setting [2]), 33.9 nM.

Turning to `Cn1c(CNc2cccc(C(=O)N[C@@H]3COc4cc(F)ccc43)c2)nnc1-c1ccncc1F`, the results for the IC50 (in assay [1]; at GRK2 (setting [2])) were 201 nM and 22.7 nM, respectively.

For `Cn1c(CNc2cccc(C(=O)N[C@H]3COc4cc(F)ccc43)c2)nnc1-c1ccncc1F`, the IC50 in assay [1] is more than 30000 nM; on GRK2 (setting [2]) it was 111 nM.

For the compound `CNS(=O)(=O)c1cccc(F)c1CNC(=O)c1cccc(NCc2nnc(-c3ccncc3)n2C)c1`, the IC50 in assay [1] was found to be 1240 nM; on GRK2 (setting [2]), 15.2 nM.

For the compound `Cn1c(CNc2cccc(C(=O)N[C@H]3CCOc4c(Cl)cccc43)c2)nnc1-c1ccncc1`, the IC50 is more than 30000 nM in assay [1] and 32.1 nM at GRK2 (setting [2]).

For `Cn1c(CNc2cccc(C(=O)N[C@@H]3CCOc4c(Cl)cccc43)c2)nnc1-c1ccncc1`, the IC50 is more than 865 nM in assay [1] and 27.5 nM on GRK2 (setting [2]).

As for `Cn1c(CNc2cccc(C(=O)N[C@H]3COc4cc(F)ccc43)c2)nnc1-c1ccncc1`, the IC50 in assay [1] is more than 7490 nM; at GRK2 (setting [2]) it was 6.81 nM.

Consider `Cn1c(CNc2cccc(C(=O)N[C@H](CCO)c3ccccc3)c2)nnc1-c1ccncc1F`, for which the IC50 in assay [1] was more than 30000 nM; at GRK2 (ADPGlo GRK2 enzyme assay), 18 nM.

For `Cn1c(CNc2cccc(C(=O)N[C@@H](CCO)c3ccccc3)c2)nnc1-c1ccncc1F`, the IC50 in assay [1] was more than 1440 nM; on GRK2 (ADPGlo GRK2 enzyme assay), 28.9 nM.

Regarding `Cn1c(CNc2cccc(C(=O)NCc3ccccc3C(F)(F)F)c2)nnc1-c1ccncc1F`, the IC50 in assay [1] is more than 2320 nM; on GRK2 (ADPGlo GRK2 enzyme assay), 39.1 nM.

`[2H]C([2H])(Nc1cccc(C(=O)N[C@H]2CCOc3ccccc32)c1)c1nnc(-c2ccncn2)n1CCO`: the IC50 is 94 nM in assay [1] and 3.23 nM on GRK2 (ADPGlo GRK2 enzyme assay).

(Values after patent US20230009608A1, “GRK2 INHIBITORS AND USES THEREOF” (Cygnal Therapeutics, Inc., priority 2020, published 2023).)
